Test results: ChEMBL document CHEMBL4011591, “Discovery and pharmacological evaluation of a novel series of adamantyl cyanoguanidines as P2X7 receptor antagonists” (Eur J Med Chem, 2017)
One block for each compound: values may come before it. Active and inactive are the calls of the source. The rule behind the calls is not given here.

What was measured:
[1] = Tmax in Balb-C mouse at 2 mg/kg, iv administered as bolus dose by LC-MS method; type: ADME, organism-based; conditions: in vivo
[2] = tested on: Mus musculus; assay: Toxicity in Balb-C mouse assessed as abnormal behavior at 0.1 to 1 mg/kg, ip measured after 30 mins; type: organism-based; conditions: in vivo, 0.5 h
[3] = Volume of distribution in Balb-C mouse at 2 mg/kg, iv administered as bolus dose by LC-MS method; type: ADME, organism-based; conditions: in vivo
[4] = Plasma concentration in Balb-C mouse at 2 mg/kg, iv administered as bolus dose measured after 2.2 mins by LC-MS analysis; type: ADME, organism-based
[5] = Half life in Balb-C mouse at 2 mg/kg, iv administered as bolus dose by LC-MS method; type: ADME, organism-based; conditions: in vivo
[6] = biological target: T1, P2X purinoceptor 7 (Homo sapiens, UniProt Q99572); assay: Antagonist activity at P2X7 receptor in LPS-stimulated human THP1 cells assessed as inhibition of LPS/BzATP-induced IL-1beta release preincubated for 30 mins followed by BzATP addition measured after 30 mins by ELISA
T1 sequence (Q99572 whole entry): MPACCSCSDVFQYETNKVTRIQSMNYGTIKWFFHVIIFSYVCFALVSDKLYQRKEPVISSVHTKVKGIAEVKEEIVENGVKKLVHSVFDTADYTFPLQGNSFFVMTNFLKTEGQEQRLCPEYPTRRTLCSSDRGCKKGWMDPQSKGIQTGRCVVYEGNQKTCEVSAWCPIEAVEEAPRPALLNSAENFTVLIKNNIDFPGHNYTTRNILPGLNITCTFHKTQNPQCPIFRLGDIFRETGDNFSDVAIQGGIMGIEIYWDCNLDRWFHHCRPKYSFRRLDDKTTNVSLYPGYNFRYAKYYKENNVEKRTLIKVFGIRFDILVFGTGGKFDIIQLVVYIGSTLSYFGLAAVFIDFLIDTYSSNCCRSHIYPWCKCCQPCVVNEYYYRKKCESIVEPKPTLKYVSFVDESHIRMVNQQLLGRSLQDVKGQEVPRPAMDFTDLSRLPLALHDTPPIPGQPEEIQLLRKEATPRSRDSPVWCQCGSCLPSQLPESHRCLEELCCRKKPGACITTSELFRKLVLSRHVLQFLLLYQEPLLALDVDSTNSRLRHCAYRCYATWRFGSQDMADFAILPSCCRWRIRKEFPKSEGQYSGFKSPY

[7] = Plasma concentration in Balb-C mouse at 2 mg/kg, iv administered as bolus dose measured after 63 mins by LC-MS analysis; type: ADME, organism-based
[8] = Plasma concentration in Balb-C mouse at 2 mg/kg, iv administered as bolus dose measured after 58 mins by LC-MS analysis; type: ADME, organism-based
[9] = Tmax in Balb-C mouse at 1 mg/kg, iv administered as bolus dose by LC-MS method; type: ADME, organism-based; conditions: in vivo
[10] = Plasma concentration in Balb-C mouse at 2 mg/kg, iv administered as bolus dose measured after 10 mins by LC-MS analysis; type: ADME, organism-based
[11] = Plasma concentration in Balb-C mouse at 10 mg/kg, po measured after 30 mins by LC-MS analysis; type: ADME, organism-based
[12] = biological target: T2, P2X purinoceptor 7 (Homo sapiens) (UniProt Q99572); assay: Ratio of IC50 for P2X7 receptor in human THP1 cells assessed as inhibition of BzATP-induced YO-PRO-1 Iodide uptake to IC50 for P2X7 receptor in LPS-stimulated human THP1 cells assessed as inhibition of LPS/BzATP-induced IL-1beta release; type: cell-based
T2 sequence (whole entry): T1 sequence (Q99572 whole entry)

[13] = AUC (0 to infinity) in Balb-C mouse at 2 mg/kg, iv administered as bolus dose by LC-MS method; type: ADME, organism-based; set-up: dose 2 mg/kg, time infinity, route intravenous; conditions: in vivo
[14] = tested on: Mus musculus; assay: Toxicity in Balb-C mouse assessed as behavior changes at 0.1 to 1 mg/kg, ip measured after 48 hrs; type: organism-based; conditions: in vivo
[15] = Cmax in Balb-C mouse at 2 mg/kg, iv administered as bolus dose by LC-MS method; type: ADME, organism-based; set-up: dose 2 mg/kg, route intravenous; conditions: in vivo
[16] = Plasma concentration in Balb-C mouse at 2 mg/kg, iv administered as bolus dose measured after 23 mins by LC-MS analysis; type: ADME, organism-based
[17] = Plasma concentration in Balb-C mouse at 2 mg/kg, iv administered as bolus dose measured after 76 mins by LC-MS analysis; type: ADME, organism-based
[18] = Plasma concentration in Balb-C mouse at 2 mg/kg, iv administered as bolus dose measured after 37 mins by LC-MS analysis; type: ADME, organism-based
[19] = biological target: T1, P2X purinoceptor 7; assay: Antagonist activity at P2X7 receptor in human THP1 cells assessed as inhibition of BzATP-induced YO-PRO-1 Iodide uptake measured every 30 secs for 1 hr by fluorescence assay; type: cell-based
[20] = Cmax in Balb-C mouse at 1 mg/kg, iv administered as bolus dose by LC-MS method; type: ADME, organism-based; set-up: dose 1 mg/kg, route intravenous; conditions: in vivo
[21] = Plasma concentration in Balb-C mouse at 2 mg/kg, iv administered as bolus dose measured after 5.8 mins by LC-MS analysis; type: ADME, organism-based
[22] = tested on: Mus musculus; assay: Toxicity in Balb-C mouse assessed as psychological changes at 0.1 to 1 mg/kg, ip measured after 48 hrs; type: organism-based; conditions: in vivo
[23] = Plasma concentration in Balb-C mouse at 10 mg/kg, po measured after 21 mins by LC-MS analysis; type: ADME, organism-based
[24] = Solubility of the compound in 8% ethanol/8% polysorbate80/84% saline formulation; type: physicochemical; conditions: buffer
[25] = Clearance in Balb-C mouse at 2 mg/kg, iv administered as bolus dose by LC-MS method; type: ADME, organism-based; conditions: in vivo
[26] = Plasma concentration in Balb-C mouse at 2 mg/kg, iv administered as bolus dose measured after 39 mins by LC-MS analysis; type: ADME, organism-based
[27] = Plasma concentration in Balb-C mouse at 10 mg/kg, po measured after 62 mins by LC-MS analysis; type: ADME, organism-based
[28] = AUC (0 to t) in Balb-C mouse at 2 mg/kg, iv administered as bolus dose by LC-MS method; type: ADME, organism-based; conditions: in vivo
[29] = Plasma concentration in Balb-C mouse at 10 mg/kg, po measured after 33 mins by LC-MS analysis; type: ADME, organism-based
[30] = Plasma concentration in Balb-C mouse at 2 mg/kg, iv administered as bolus dose measured after 10.1 mins by LC-MS analysis; type: ADME, organism-based
[31] = Terminal elimination rate constant in Balb-C mouse at 2 mg/kg, iv administered as bolus dose by LC-MS method; type: ADME, organism-based; conditions: in vivo, read-out: LZ (converted)
[32] = tested on: Mus musculus; assay: Anti-depressant like activity in wild-type Balb-C mouse assessed as reduction in duration of immobility at 1 mg/kg, ip administered 15 to 30 mins prior to the testing measured on day 3 post dose by force swim test; type: functional, organism-based
[33] = Plasma concentration in Balb-C mouse at 2 mg/kg, iv administered as bolus dose measured after 6 mins by LC-MS analysis; type: ADME, organism-based
[34] = Plasma concentration in Balb-C mouse at 2 mg/kg, iv administered as bolus dose measured after 2.5 mins by LC-MS analysis; type: ADME, organism-based
[35] = Plasma concentration in Balb-C mouse at 2 mg/kg, iv administered as bolus dose measured after 15 mins by LC-MS analysis; type: ADME, organism-based
[36] = MRT (0 to infinity) in Balb-C mouse at 2 mg/kg, iv administered as bolus dose by LC-MS method; type: ADME, organism-based; conditions: in vivo
[37] = Half life in CD-1 mouse at 3 mg/kg, po administered as single dose via gavage by HPLC-MS/MS; type: ADME, organism-based; conditions: in vivo
[38] = biological target: T3, P2X purinoceptor 7 (Rattus norvegicus, UniProt Q64663); assay: Antagonist activity at rat P2X7 receptor expressed in 1321N1 cells assessed as inhibition of agonist-induced calcium flux pretreated for 3 mins followed by BzATP addition after 3 mins measured every 1 sec for 60 secs and at 5 secs interval throughout testing by Flou-4-AM dye based FLIPR assay; type: cell-based
T3 sequence (Q64663 whole entry): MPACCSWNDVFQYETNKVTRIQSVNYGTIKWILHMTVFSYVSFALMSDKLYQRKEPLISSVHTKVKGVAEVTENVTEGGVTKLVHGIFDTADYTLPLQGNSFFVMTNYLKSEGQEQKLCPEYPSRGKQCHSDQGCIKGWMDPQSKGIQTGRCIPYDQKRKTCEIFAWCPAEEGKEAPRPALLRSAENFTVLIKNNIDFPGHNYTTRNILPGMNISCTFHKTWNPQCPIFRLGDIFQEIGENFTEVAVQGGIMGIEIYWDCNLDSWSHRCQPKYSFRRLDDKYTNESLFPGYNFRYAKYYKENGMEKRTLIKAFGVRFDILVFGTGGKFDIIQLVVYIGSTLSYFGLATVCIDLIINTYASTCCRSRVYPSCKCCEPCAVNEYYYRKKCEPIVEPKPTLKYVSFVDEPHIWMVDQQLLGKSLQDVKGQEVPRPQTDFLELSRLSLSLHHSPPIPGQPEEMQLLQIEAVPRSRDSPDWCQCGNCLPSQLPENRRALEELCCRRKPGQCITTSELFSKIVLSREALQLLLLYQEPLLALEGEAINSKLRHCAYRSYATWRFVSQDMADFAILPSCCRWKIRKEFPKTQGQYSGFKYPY

[39] = Half life in iv dosed rat; type: ADME, organism-based; conditions: in vivo
[40] = tested on: Rattus norvegicus; assay: Intrinsic clearance in iv dosed rat; type: ADME, organism-based; conditions: in vivo

SMILES: N#C/N=C(\NCC12CC3CC(CC(C3)C1)C2)Nc1ccccn1
- IC50 [19]: > 10000 nM

SMILES: c1cnc2cc3c(cc2n1)[C@@H]1CNC[C@H]3C1 [VARENICLINE]
- half-life [37]: 84 min

SMILES: COc1ccc(N/C(=N/C#N)NCC23CC4CC(CC(C4)C2)C3)cc1
- IC50 [19]: 562 nM

SMILES: N#C/N=C(\NCCC12CC3CC(CC(C3)C1)C2)NCc1ccccc1
- IC50 [19]: 3020 nM

SMILES: COc1cccc(CN/C(=N/C#N)NCC23CC4CC(CC(C4)C2)C3)c1
- IC50 [19]: 851 nM

SMILES: C[C@H](N/C(=N/C#N)Nc1cccc2ncccc12)c1ccccc1
- IC50 [38]: 9 to 11 nM

SMILES: N#C/N=C(/NCc1ccccc1)NC12CC3CC(CC(C3)C1)C2
- IC50 [19]: > 10000 nM

SMILES: N#C/N=C(/NCCc1ccccc1)NCC12CC3CC(CC(C3)C1)C2
- IC50 [19]: 4070 nM

SMILES: O=C(CC12CC3CC(CC(C3)C1)C2)Nc1ccc2[nH]ncc2c1
- half-life [39]: 60 min
- CL [40]: 47 mL/min/kg

Continued, in another order:

- Tmax [1]: 2.5 min
- Vd [3]: 2.2 L/kg
- concentration at 132 s [4]: 687 ng/mL
- half-life [5]: 13.2 min
- IC50 [6]: 40 nM
- concentration at 1.05 h [7]: 31 ng/mL
- concentration at 58 min [8]: 52 ng/mL
- Tmax [9]: 20 to 30 min
- concentration at 10 min [10]: 365 ng/mL
- concentration at 0.5 h [11]: 39 ng/mL
- Ratio IC50 [12]: 1.7
- AUC(0-inf) [13]: 0.88 µM·h
- Cmax [15]: 3650 nM
- concentration at 23 min [16]: 220 ng/mL
- concentration at 76 min [17]: 12 ng/mL
- concentration at 37 min [18]: 123 ng/mL
- IC50 [19]: 69 nM
- Cmax [20]: 912 nM
- concentration at 348 s [21]: 523 ng/mL
- concentration at 0.35 h [23]: 44 ng/mL
- solubility [24]: Insoluble
- clearance [25]: 117 mL/min/kg
- concentration at 0.65 h [26]: 160 ng/mL
- concentration at 62 min [27]: 5.8 ng/mL
- AUC(0-t) [28]: 0.87 µM·h
- concentration at 0.55 h [29]: 23 ng/mL
- concentration at 0.168333 h [30]: 332 ng/mL
- k el [31]: 0.000886 s⁻¹
- concentration at 0.1 h [33]: 766 ng/mL
- concentration at 2.5 min [34]: 1180 ng/mL
- concentration at 0.25 h [35]: 461 ng/mL
- MRT inf [36]: 18.6 min
SMILES: N#C/N=C(/NCc1cccnc1)NCC12CC3CC(CC(C3)C1)C2
- Activity [2]: Non-Toxic
- Activity [14]: Non-Toxic
- Activity [22]: Non-Toxic
- Activity [32]: Active

- IC50 [19]: 501 nM
SMILES: N#C/N=C(/NCc1ccccc1F)NCC12CC3CC(CC(C3)C1)C2

- IC50 [19]: 214 nM
SMILES: N#C/N=C(\NCC12CC3CC(CC(C3)C1)C2)Nc1cccnc1

- IC50 [19]: 186 nM
SMILES: N#C/N=C(\NCC12CC3CC(CC(C3)C1)C2)Nc1cccc(F)c1

- IC50 [19]: 417 nM
SMILES: N#C/N=C(\NCC12CC3CC(CC(C3)C1)C2)Nc1ccncc1

- IC50 [19]: 51 nM
SMILES: COc1ccccc1N/C(=N/C#N)NCC12CC3CC(CC(C3)C1)C2
